# Test system: HepG2 cells
# Test: Annexin V assay for apoptosis
# Assay type: cell-based, human
# Settings: 20 mM acetaminophen, 16 mM caffeine, 100 mM thioacetamide, by 24 hr
# Procedure: Translocation of phosphatidyl serine to the cell membrane was measured by affinity binding to annexin V using the Apotest Biotin kit from NeXins Research B.V. (The Netherlands). HepG2 cells were cultured as above and plated into Cytostar-T scintillating microplates (Amersham) at 10^6 cells/well and grown for 3 days prior to treatment as above. Following treatment, 50 μl/well of 4 μg/ml annexin V-biotin in 2× Ca^2+ binding buffer was added. Wells with no annexin V-biotin were included as background controls. Following incubation for 20 min at room temperature, 50 μl/well of 0.5 μCi [^35S] streptavidin (Amersham) in 2× Ca^2+ binding buffer was added and incubated for 2 hrs at room temperature with gentle shaking. Plates were spun down at 1,100 rpm for 8 min and read on a Packard TopCount instrument (see e.g., Vermes et al., J. Immunol. Methods 185:81-93 (1995)).
compound,measurement,value
CC(=N)S [thioacetamide],"Apoptosis, annexin V assay",induces the greatest response

# From US20020110808A1, “Toxicant-induced differential gene expression” (priority 2000, published 2002)
